The source of these data is patent US8981106B2, “Pyrimidinecarboxamides as CXCR2 modulators” (Syntrix Biosystems, Inc., priority 2009, dated 2015).

Chain of CXCR2 (P25025 whole entry): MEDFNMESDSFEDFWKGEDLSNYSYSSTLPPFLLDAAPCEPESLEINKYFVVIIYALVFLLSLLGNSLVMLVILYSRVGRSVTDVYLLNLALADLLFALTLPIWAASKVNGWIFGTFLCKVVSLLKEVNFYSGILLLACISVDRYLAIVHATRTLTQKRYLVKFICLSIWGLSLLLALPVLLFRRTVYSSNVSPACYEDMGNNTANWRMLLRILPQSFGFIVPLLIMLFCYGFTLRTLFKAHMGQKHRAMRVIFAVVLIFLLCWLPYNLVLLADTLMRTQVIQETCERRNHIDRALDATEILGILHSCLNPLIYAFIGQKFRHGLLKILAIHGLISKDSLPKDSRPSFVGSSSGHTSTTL

The assay addresses CXCR2 (Homo sapiens (Human), UniProt P25025). In words: Inhibition of GROα-mediated intracellular calcium release in human neutrophils (FLIPR-3 Ca2+ mobilization). It counts as cell-based. As to conditions: human neutrophils, 25 nM GROα; read-out: IC50. On the procedure: In Tables 1-5, the IC50 or EC50 values were determined using the following assay. This assay measures intracellular calcium release via fluorescence as an indication of CXCR2 receptor activation by the physiologic agonist GROα. The assay is a Ca^2+ mobilization assay that measures changes in intracellular Ca^2+ with a FlexStation II scanning fluorometer using a FLIPR-3 Calcium Assay Kit (Molecular Devices, Sunnyvale, Calif.). The procedure is as follows:
1. Human neutrophils were suspended in HBSS^− (without Ca^2+ and Mg^2+) containing 10 mM HEPES and FLIPR Calcium 3 dye (3.1×10^7 cells in total volume 1.7 mL).
2. […] As controls, 2 μL of DMSO (1% final concentration) were added to other 2 tubes.
3. Cells were incubated for 30 min at 37° C.
4. After dye loading, tubes were centrifuged at 6,000 rpm for 1 min, supernatant was removed and cell pellet was re-suspended in 200 μL of HBSS^+ (with Ca^2+ and Mg^2+) containing 10 mM HEPES.
5. The compound or DMSO (control) was added again at the same concentrations that were used during cell loading.
6. The cell suspension was aliquoted into a 96-well Reading Plate (Corning) in a volume of 90 μL (10^5 cells/well). The Compound Plate contained physiologic agonist (GROα in HBSS^−) or HBSS^− (control).
9. The maximum change in fluorescence, expressed in arbitrary units over baseline (Max-Min) was used to determine the GROα response. […] Therapeutic Activity
Briefly, human neutrophils were suspended in HBSS^− (without Ca^2+ and Mg^2+) containing 10 mM HEPES and FLIPR Calcium 3 dye (3.1×10^7 cells in total volume 1.7 mL). […] As controls, 2 μL of DMSO (1% final concentration) were added to 2 other tubes. Cells were incubated for 30 min at 37° C. After dye loading, tubes were centrifuged at 6,000 rpm for 1 min, supernatant was removed and the cell pellet was re-suspended in 200 μL of HBSS^+ (with Ca^2+ and Mg^2+) containing 10 mM HEPES. The test compound or DMSO (control) was added again at the same concentrations that were used during cell loading. The cell suspension was aliquoted into a 96-well Reading Plate (Corning) in a volume of 90 μL (10^5 cells/well). The Compound Plate contained agonist (GROα in HBSS^−) or HBSS^− (control).
The maximum change in fluorescence, expressed in arbitrary units over baseline (Max-Min), was used to determine the GROα response.
For the compound `O=C(Nc1ccc(F)cc1)c1ccc(SCc2cc(F)ccc2B(O)O)nc1` [Compound 3], the IC50 is 0.052 ± 0.005 µM.

In the case of `COc1cc(CSc2ccc(C(=O)Nc3ccc(F)cc3)cn2)c(B(O)O)cc1OC` [Compound 5, 6-(2-boronic acid-4,5-di-methoxy-benzylsulfanyl)-N-(4-fluoro-phenyl)-nicotinamide], the IC50 was > 10 µM.

On to `O=C(Nc1ccc(F)cc1)c1ccc(SCc2cc3c(cc2B(O)O)OCO3)nc1` [Compound 6], for which the half-inhibitory concentration (IC50) is > 10 µM.

As to `O=C(Nc1ccc(F)cc1)c1ccc(SCc2cccc(B(O)O)c2)nc1` [Compound 7], the 50% inhibitory concentration (IC50) was found to be 1.97 ± 0.75 µM.

Turning to `O=C(Nc1ccc(F)cc1)c1ccc(SCc2ccc(B(O)O)cc2)nc1` [Compound 8], the half-inhibitory concentration (IC50) came out at 0.899 ± 0.15 µM.

On to `O=C(Nc1ccc(F)cc1)c1ccc(SCCc2ccccc2B(O)O)nc1` [Compound 9], for which the IC50 was 0.387 ± 0.125 µM.

Turning to `O=C(Nc1ccc(F)cc1)c1ccc(SCCCCB(O)O)nc1` [Compound 10], the half-maximal inhibitory concentration (IC50) came to 0.689 ± 0.23 µM.

Turning to `O=C(Nc1ccc(F)cc1)c1ccc(SCc2ccccc2)nc1` [Compound 12], the IC50 was 0.393 ± 0.16 µM.

For the compound `CC(=O)Oc1ccccc1CSc1ccc(C(=O)Nc2ccc(F)cc2)cn1` [Compound 13a], the IC50 is > 5 µM.

Regarding `CC(=O)Oc1ccc(OC(F)(F)F)cc1CSc1ccc(C(=O)Nc2ccc(F)cc2)cn1` [Compound 14a], the IC50 worked out at 1.06 ± 0.27 µM.

Turning to `CC1(C)OB(c2ccccc2CCSc2ccc(C(=O)Nc3ccc(F)cc3)cn2)OC1(C)C` [Compound 15], the IC50 came out at 0.611 µM.

For the compound `CC1(C)OB(c2ccccc2CSc2ccc(C(=O)Nc3ccc(F)cc3)cn2)OC1(C)C` [Compound 16], the IC50 turned out to be 0.275 ± 0.103 µM.

On to `CC1(C)C2CC3OB(c4ccccc4CSc4ccc(C(=O)Nc5ccc(F)cc5)cn4)OC3(C)C1C2` (stereo not drawn) [Compound 17], for which the IC50 worked out at 0.059 ± 0.029 µM.

In the case of `CC1(C)OB(c2ccc(F)cc2CSc2ccc(C(=O)Nc3ccc(F)cc3)cn2)OC1(C)C` [Compound 18], the IC50 was determined as 1.23 ± 0.12 µM.

On to `CC1(C)OB(c2ccc(OC(F)(F)F)cc2CSc2ccc(C(=O)Nc3ccc(F)cc3)cn2)OC1(C)C` [Compound 19, 6-(2-boronic pinacol ester-5-trifluoromethoxy-benzylsulfanyl)-N-(4-fluoro-phenyl)-nicotinamide], for which the IC50 was determined as 0.072 ± 0.007 µM.

With `CC1(C)OB(c2ccc(CSc3ccc(C(=O)Nc4ccc(F)cc4)cn3)cc2)OC1(C)C` [Compound 20], the IC50 came to 0.112 ± 0.067 µM.

Regarding `COC(=O)c1ccccc1CSc1ccc(C(=O)Nc2ccc(F)cc2)cn1` [Compound 21], the IC50 turned out to be 0.759 ± 0.19 µM.

In the case of `COC(=O)c1cccc(CSc2ccc(C(=O)Nc3ccc(F)cc3)cn2)c1` [Compound 22], the IC50 is > 5 µM.

As to `COC(=O)c1ccc(CSc2ccc(C(=O)Nc3ccc(F)cc3)cn2)cc1` [Compound 23], the IC50 is > 10 µM.

For `O=C(Nc1ccc(F)cc1)c1ccc(SCc2ccccc2C(=O)O)nc1` [Compound 24], the IC50 turned out to be 1.48 ± 0.49 µM.

With `O=C(O)c1cccc(CSc2ccc(C(=O)Nc3ccc(F)cc3)cn2)c1` [Compound 25], the IC50 was determined as 2.12 ± 0.74 µM.

Regarding `O=C(Nc1ccc(F)cc1)c1ccc(SCc2ccccc2-c2nn[nH]n2)nc1` [Compound 26], the IC50 amounted to 0.173 ± 0.046 µM.

As to `O=C(Nc1ccc(F)cc1)c1ccc(SCc2ccc(Cl)c(Cl)c2)nc1` [Compound 27], the IC50 was 1.61 µM.

Consider `Cc1cccc(CSc2ccc(C(=O)Nc3ccc(F)cc3)cn2)c1F` [Compound 28], for which the IC50 was > 10 µM.

For the compound `O=C(Nc1ccc(F)cc1)c1ccc(SCc2ccc(-c3ccsc3)cc2)nc1` [Compound 29], the IC50 was > 10 µM.

On to `O=C(Nc1ccc(F)cc1)c1ccc(SCc2ccccc2-c2cccs2)nc1` [Compound 30], for which the IC50 is > 5 µM.

Consider `O=C(Nc1ccc(F)cc1)c1ccc(SCc2ccc(-n3cccc3)cc2)nc1` [Compound 31], for which the IC50 was > 10 µM.

For the compound `O=C(Nc1ccc(F)cc1)c1ccc(SCc2ccc(-n3cccn3)cc2)nc1` [Compound 32], the IC50 is > 10 µM.

In the case of `O=C(Nc1ccc(F)cc1)c1ccc(SCc2ccc(-n3cncn3)cc2)nc1` [Compound 33], the IC50 was > 10 µM.

On to `Cc1nc(-c2ccc(CSc3ccc(C(=O)Nc4ccc(F)cc4)cn3)cc2)no1` [Compound 34], for which the IC50 was > 10 µM.

Turning to `Cc1nc(-c2cccc(CSc3ccc(C(=O)Nc4ccc(F)cc4)cn3)c2)no1` [Compound 35], the IC50 is > 10 µM.

Consider `Cc1nc(-c2ccc(CSc3ccc(C(=O)Nc4ccc(F)cc4)cn3)cc2)cs1` [Compound 36], for which the IC50 was > 10 µM.

With `Cc1nc(-c2cccc(CSc3ccc(C(=O)Nc4ccc(F)cc4)cn3)c2)cs1` [Compound 37], the IC50 is > 5 µM.

In the case of `O=C(Nc1ccc(F)cc1)c1ccc(SCc2cccc(-n3cccc3)c2)nc1` [Compound 38], the IC50 was > 10 µM.

Regarding `O=C(Nc1ccc(F)cc1)c1ccc(SCc2ccc([N+](=O)[O-])cc2)nc1` [Compound 39], the IC50 is > 10 µM.

Regarding `O=C(Nc1ccc(F)cc1)c1ccc(SCc2cc([N+](=O)[O-])ccc2O)nc1` [Compound 40], the IC50 is > 5 µM.

For the compound `O=C(Nc1ccc(F)cc1)c1ccc(SCc2ccc(OC(F)(F)F)cc2)nc1` [Compound 41], the IC50 was > 10 µM.

`O=C(Nc1ccc(F)cc1)c1ccc(SCc2cccc(OC(F)(F)F)c2)nc1` [Compound 42]: the IC50 was > 10 µM.

With `O=C(Nc1ccc(F)cc1)c1ccc(SCc2ccncc2)nc1` [Compound 43], the IC50 was > 5 µM.

Regarding `Cc1cc(CSc2ccc(C(=O)Nc3ccc(F)cc3)cn2)no1` [Compound 44], the IC50 is > 5 µM.

With `Cc1onc(-c2ccccc2)c1CSc1ccc(C(=O)Nc2ccc(F)cc2)cn1` [Compound 45], the IC50 was > 5 µM.

Consider `Cc1noc(-c2ccccc2)c1CSc1ccc(C(=O)Nc2ccc(F)cc2)cn1` [Compound 46], for which the IC50 was > 10 µM.

As to `Cc1n[nH]c(C)c1CCSc1ccc(C(=O)Nc2ccc(F)cc2)cn1` [Compound 47], the concentration for half-maximal inhibition (IC50) was > 5 µM.

With `O=C(Nc1ccc(F)cc1)c1ccc(SCc2nn[nH]n2)nc1` [Compound 49], the IC50 was determined as 3.9 ± 1.2 µM.

Take `O=C(Nc1ccc(F)cc1)c1ccc(SCc2cccc3c2OCCCO3)nc1` [Compound 50]: the IC50 worked out at 0.35 µM.

`O=C(Nc1ccc(F)cc1)c1ccc(SCC2COc3ccccc3O2)nc1` (stereo not drawn) [Compound 51]: the IC50 was 0.76 µM.

For the compound `O=C(Nc1ccc(F)cc1)c1ccc(SCCOc2cccc3c2OCCO3)nc1` [Compound 52], the IC50 was 1.58 µM.

As for `O=C(Nc1ccc(F)cc1)c1ccc(SCc2cccc3cccnc23)nc1` [Compound 53], the IC50 was > 5 µM.

With `O=C(Nc1ccc(F)cc1)c1ccc(SCc2nccc3ccccc23)nc1` [Compound 54], the IC50 is > 5 µM.

For `Cc1ccc2cc(CSc3ccc(C(=O)Nc4ccc(F)cc4)cn3)ccc2n1` [Compound 55], the IC50 is > 10 µM.

As for `O=C(Nc1ccc(F)cc1)c1ccc(SCc2ccc3nc(C(F)(F)F)cc(Cl)c3c2)nc1` [Compound 56], the IC50 is > 5 µM.

On to `Nc1nc(N)c2nc(CSc3ccc(C(=O)Nc4ccc(F)cc4)cn3)cnc2n1` [Compound 57], for which the IC50 was > 10 µM.

For the compound `O=C(Nc1ccc(F)cc1)c1ccc(SCCCN2C(=O)c3ccc([N+](=O)[O-])cc3C2=O)nc1` [Compound 58], the IC50 was > 5 µM.

Consider `O=C(Nc1ccc(F)cc1)c1ccc(SCCCCN2C(=O)c3ccc([N+](=O)[O-])cc3C2=O)nc1` [Compound 59], for which the IC50 is > 10 µM.

Turning to `O=C(Nc1ccc(F)cc1)c1ccc(SCCCCCCN2C(=O)c3ccc([N+](=O)[O-])cc3C2=O)nc1` [Compound 60], the IC50 was > 10 µM.

Consider `O=C(Nc1ccc(F)cc1)c1ccc(SCc2ccc3nsnc3c2)nc1` [Compound 62], for which the IC50 is > 10 µM.

On to `O=C(Nc1ccc(F)cc1)c1ccc(SCc2cc3nsnc3cc2Cl)nc1` [Compound 63], for which the IC50 is > 10 µM.

With `O=C(Nc1ccc(F)cc1)c1ccc(SCc2cccc3nsnc23)nc1` [Compound 64], the IC50 was > 5 µM.

Turning to `O=C(Nc1ccc(F)cc1)c1ccc(SCc2ccc3nonc3c2)nc1` [Compound 65], the IC50 amounted to 0.216 ± 0.066 µM.

`O=C(Nc1ccc(F)cc1)c1ccc(SCc2cccc3nonc23)nc1` [Compound 66]: the IC50 was > 5 µM.

On to `Cn1c(CSc2ccc(C(=O)Nc3ccc(F)cc3)cn2)nc2ccccc21` [Compound 67], for which the IC50 is > 10 µM.

For `O=C(Nc1ccc(F)cc1)c1ccc(SCc2nc3ccccc3s2)nc1` [Compound 68], the IC50 was > 10 µM.

In the case of `O=C(Nc1ccc(F)cc1)c1ccc(SCc2csc3ccc(Cl)cc23)nc1` [Compound 69], the IC50 was > 10 µM.
